Test results: patent US20220072089A1, “CANCER THERAPEUTIC COMPOSITIONS AND METHODS” (University of Vermont and State Agricultural College, priority 2018, published 2022)
Like-named read-outs stand apart in the source and are kept apart here.

Assays:
peroxiredoxin 3 (PRX3) = biological target: T1, peroxiredoxin 3 (PRX3) (Homo sapiens, UniProt P30048); assay: Covalent adduction of PRX3 in MM cells (reducing SDS-PAGE, western blot), Example 7; format: cell-based; settings: 0, 2, 4 μM TS alone or with 30 μM TLK-199, 24 hours, FIG. 4
T1 construct: endogenous in cells
T1 sequence (P30048 62-256): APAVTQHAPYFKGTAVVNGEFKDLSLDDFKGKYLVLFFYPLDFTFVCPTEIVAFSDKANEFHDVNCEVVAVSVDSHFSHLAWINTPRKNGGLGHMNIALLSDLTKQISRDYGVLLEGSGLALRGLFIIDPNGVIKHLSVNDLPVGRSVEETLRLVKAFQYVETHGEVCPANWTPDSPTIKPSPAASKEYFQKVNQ
Experimental: Malignant mesothelioma (MM) cells were incubated with 0, 2,and 4 μM Thiostrepton (TS) alone or in the presence of 30 μM TLK-199 for 24 hours. Cell lysates were collected, and proteins were separated by reducing SDS-Polyacrylamide Gel Electrophoresis.

[1] = test system: Malignant mesothelioma (MM) cells; assay: Malignant mesothelioma cell viability (cell number), Example 1; format: cell-based; settings: Homo sapiens
Experimental: Malignant mesothelioma (MM) cells were incubated with increasing concentrations of TS (0-10 μM) and TLK-199 (0-200 μM) for 48 hours and then assayed for cell number (viability).

[2] = test system: patients with myelodysplatic syndrome; settings: 50-600 mg/m^2 IV over 60 minutes; cited from earlier work
MM cells = assay: Combinations administered to subjects with malignant mesothelioma, Example 8; format: in vivo
Experimental: Subjects with malignant mesothelioma (MM) are administered (1) thiostrepton (TS) and TLK-199, (2) TS, gentian violet (GV), and TLK or (3) GV and TLK-199.

[3] = single agent, malignant mesothelioma cells, 48 hours, read-out: inhibitory concentration required to kill 50% of cells (IC50)

Compound | covalent adduction of PRX3 (PRX3 dimer:monomer ratio) (peroxiredoxin 3 (PRX3)) | IC50 ([1]; 48 h, read-out: inhibitory concentration required to kill 50% of cells (IC50)) | IC50 ([1]; read-out: calculated IC50) | bone marrow maturation and cellularity [2] | clinical symptoms [2] | transfusion requirements [2] | effect of including TLK-199 on reduction in viability of MM cells (MM cells) | IC50 [1, 3]
C=C(NC(=O)C(=C)NC(=O)c1csc(C2=N[C@@H]3c4csc(n4)[C@H]4NC(=O)c5csc(n5)[C@H]([C@](C)(O)[C@@H](C)O)NC(=O)[C@H]5CSC(=N5)/C(=C/C)NC(=O)[C@H]([C@@H](C)O)NC(=O)c5csc(n5)[C@]3(CC2)NC(=O)[C@H](C)NC(=O)C(=C)NC(=O)[C@H](C)NC(=O)[C@H]([C@@H](C)CC)N[C@@H]2C=Cc3c([C@H](C)O)cc(nc3[C@H]2O)C(=O)O[C@@H]4C)n1)C(N)=O [TS, Thiostrepton] | PRX3 monomers were covalently crosslinked | ~1.5 µM | 0.9 to 2.4 µM |  |  |  |  | 
CCOC(=O)[C@@H](NC(=O)[C@H](CSCc1ccccc1)NC(=O)CC[C@H](N)C(=O)OCC)c1ccccc1 [TLK-199, (S)-ethyl 2-amino-5-(((R)-3-(benzylthio)-1-(((S)-2-ethoxy-2-oxo-1-phenylethyl)amino)-1-oxopropan-2-yl)amino)-5-oxopentanoate] |  |  |  | Improvement in bone marrow maturation and cellularity | improvement in clinical symptoms | reductions in transfusion requirements | synergistic effect | 45 µM
CN(C)c1ccc(C(=C2C=CC(=[N+](C)C)C=C2)c2ccc(N(C)C)cc2)cc1 [GV, Gentian violet] |  |  |  |  |  |  |  | 0.15 µM
